The record followed here is ChEMBL document CHEMBL1151438, “In vitro resistance study of rupintrivir, a novel inhibitor of human rhinovirus 3C protease” (Antimicrob Agents Chemother, 2007).

The subject of assay [1] is rhinovirus A39. Kind of assay: Ratio of EC50 for HRV39 infected in human H1-HeLa cells after 4 passages for 24 days to EC50 for wild type HRV39 infected in human H1-HeLa cells. Type of assay: functional.
In assay [2] the test system is rhinovirus B14. Kind of assay: Antiviral activity against HRV14 with 3C protease A121A/V, T129A, T131A, T143P, Y139Y/H mutation infected in human H1-HeLa cells assessed as virus-induced cytopathic effect after 11 passages for 65 days by XTT assay. It is filed as functional, organism-based. Particulars: Rhinovirus B.
Assay [3] concerns rhinovirus A39. In words: Ratio of EC50 for HRV39 infected in human H1-HeLa cells after 5 passages for 29 days to EC50 for wild type HRV39 infected in human H1-HeLa cells. It is filed as functional.
The subject of assay [4] is rhinovirus A39. In words: Antiviral activity against HRV39 with 3C protease S105T, N130K, L136F mutation infected in human H1-HeLa cells assessed as virus-induced cytopathic effect after 9 passages for 50 days by XTT assay. Type of assay: functional, organism-based. Particulars: Rhinovirus A.
Assay [5] has as its system rhinovirus B14. Kind of assay: Ratio of EC50 for HRV14 infected in human H1-HeLa cells after 2 passages for 11 days to EC50 for wild type HRV14 infected in human H1-HeLa cells. Type of assay: functional.
In assay [6] the test system is rhinovirus A2. Kind of assay: Ratio of EC50 for HRV2 with 3C protease E3E/G, A103A/V, N165T mutation infected in human H1-HeLa cells after 9 passages for 62 days to EC50 for wild type HRV2 infected in human H1-HeLa cells. Type of assay: functional.
Assay [7] has as its system Human rhinovirus sp. Kind of assay: Ratio of EC50 for HRV Hanks infected in human H1-HeLa cells after 1 passage for 7 days to EC50 for wild type HRV Hanks infected in human H1-HeLa cells. It is filed as functional.
Assay [8] relates to rhinovirus B14. In words: Ratio of EC50 for HRV14 infected in human H1-HeLa cells after 6 passages for 27 days to EC50 for wild type HRV14 infected in human H1-HeLa cells. Type of assay: functional.
The subject of assay [9] is rhinovirus A2. In words: Antiviral activity against HRV2 with 3C protease N165T mutation infected in human H1-HeLa cells assessed as virus-induced cytopathic effect after 4 passages for 24 days by XTT assay. It is filed as functional, organism-based. Particulars: Rhinovirus A, 576 h.
The test system of assay [10] is rhinovirus A2. Kind of assay: Ratio of EC50 for HRV2 infected in human H1-HeLa cells after 3 passages for 17 days to EC50 for wild type HRV2 infected in human H1-HeLa cells. Type of assay: functional.
Assay [11] has as its system rhinovirus B14. Kind of assay: Ratio of EC50 for HRV14 with 3C protease with A121A/V, T129A, T131A, T143P, Y139Y/H mutation infected in human H1-HeLa cells after 11 passages for 65 days to EC50 for wild type HRV14 infected in human H1-HeLa cells. It is filed as functional.
The test system of assay [12] is rhinovirus B14. In words: Antiviral activity against HRV14 with 3C protease T129A mutation infected in human H1-HeLa cells assessed as virus-induced cytopathic effect after 3 days by XTT assay. It is filed as functional, organism-based. Particulars: Rhinovirus B, 72 h.
Assay [13] has as its system rhinovirus A2. In words: Ratio of EC50 for HRV2 infected in human H1-HeLa cells after 10 passages for 66 days to EC50 for wild type HRV2 infected in human H1-HeLa cells. Type of assay: functional.

As to `CCOC(=O)/C=C/[C@H](C[C@@H]1CCNC1=O)NC(=O)[C@@H](CC(=O)[C@@H](NC(=O)c1cc(C)on1)C(C)C)Cc1ccc(F)cc1` [RUPINTRIVIR], the “Ratio EC50” value in assay [1] was found to be 6; in assay [3], 6; in assay [5] it was 3.5; in assay [6] it was 5; in assay [7], 1; in assay [8] it was 20. Moreover, the “Ratio EC50” value in assay [10] is on record as 3; in assay [11], 16; in assay [13] it was 15. The EC50 came to 335 nM in assay [2], 94 nM in assay [4], 44 nM in [9] and 14 nM in assay [12].
